Test [1] relates to lymphocyte (thymocyte / T-cell) proliferation. Nature of the test: Comitogen-induced thymocyte proliferation procedure (LAF). Format: cell-based, normal BALB/c mice. The following applies: for inhibition at 0.1 µM / IC50: Mus musculus; for inhibition at 0.1 µM: T-cell, read-out: % Inhib. (percent inhibition of T-cell proliferation at 0.1 μM); for IC50: Thymocyte, thymus cells of BALB/c mice cultured 72 hours with PHA and IL-1, tritiated thymidine pulse during last six hours; for LAF (ratio) compared with rapamycin: >1 means test compound inhibits thymocyte proliferation more than rapamycin. As to the method: (§1) Immunosuppressive activity for representative compounds of this invention was evaluated in an in vitro standard pharmacological test procedure to measure lymphocyte proliferation (LAF) and in an in vivo standard pharmacological test procedure which evaluated the survival time of a pinch skin graft.
The comitogen-induced thymocyte proliferation procedure (LAF) was used as an in vitro measure of the immunosuppressive effects of representative compounds. Briefly, cells from the thymus of normal BALB/c mice are cultured for 72 hours with PHA and IL-1 and pulsed with tritiated thymidine during the last six hours. Cells are cultured with and without various concentrations of rapamycin, cyclosporin A, or test compound. Cells are harvested and incorporated radioactivity is determined. Inhibition of lymphoproliferation is assessed as percent change in counts per minute from non-drug treated controls. For each compound evaluated, rapamycin was also evaluated for the purpose of comparison. An IC50 was obtained for each test compound as well as for rapamycin. […] The results obtained are provided as an IC50 and as the percent inhibition of T-cell proliferation at 0.1 μM. The results obtained for the representative compounds of this invention were also expressed as a ratio compared with rapamycin. A positive ratio indicates immunosuppressive activity. […] Calculation of the ratio is shown below. [formula]

Another test relates to pinch skin graft. Description: Pinch skin graft survival time. Format: in vivo, male BALB/c donors, male C3H(H-2K) recipients. Particulars: 4 mg/kg, intraperitoneally or orally; untreated controls rejected within 6-7 days. As to the method:
as §1
Representative compounds of this invention were also evaluated in an in vivo test procedure designed to determine the survival time of pinch skin graft from male BALB/c donors transplanted to male C3 H(H-2K) recipients. The method is adapted from Billingham R. E. and Medawar P. B., J. Exp. Biol. 28:385-402, (1951 ). Briefly, a pinch skin graft from the donor was grafted on the dorsum of the recipient as a allograft, and an isograft was used as control in the same region. The recipients were treated with either varying concentrations of test compounds intraperitoneally or orally. Rapamycin was used as a test control. Untreated recipients serve as rejection control. The graft was monitored daily and observations were recorded until the graft became dry and formed a blackened scab. This was considered as the rejection day. The mean graft survival time (number of days±S.D.) of the drug treatment group was compared with the control group. […] Results are expressed as the mean survival time in days. Untreated (control) pinch skin grafts are usually rejected within 6-7 days. The results shown in Table 1 are based on a dose of 4 mg/kg of test compound. A survival time of 12.0 ±1.7 days was obtained for rapamycin at 4 mg/kg.

For test [2], the system named is adjuvant arthritis model, a model for rheumatoid arthritis. Particulars: in vivo; cited from earlier work.
Test [3] has as its system experimental allergic encephalomyelitis model, a model for multiple sclerosis. The following applies: in vivo; cited from earlier work.
For test [4], the system named is formation of IgE-like antibodies. Particulars: in vivo; cited from earlier work.
For test [5] the following is noted: alone or in combination with picibanil; cited from earlier work.
The next test deals with Candida albicans. Particulars: in vitro and in vivo; cited from earlier work.

The structures appear in SMILES notation. Several values for one entry are separate records, joined by “and”; a condition that tells them apart may be missing. Equal entries are not always repeated.

Broadly, the IC50 is the midpoint of a concentration-inhibition curve. Turning to `CCOP(=O)(NC(=O)O[C@@H]1/C(C)=C/[C@@H](C)C(=O)C[C@@H]([C@H](C)C[C@@H]2CC[C@@H](OC(=O)NP(=O)(OCC)OCC)[C@H](OC)C2)OC(=O)[C@@H]2CCCCN2C(=O)C(=O)[C@]2(O)O[C@@H](CC[C@H]2C)C[C@H](OC)/C(C)=C/C=C/C=C/[C@@H](C)C[C@@H](C)C(=O)[C@@H]1OC)OCC` [Example 1, Rapamycin 31,42-diester with (diethoxyphosphoryl)carbamic acid], in test [1], the inhibition at 0.1 µM was found to be 72%, the IC50 is 90.9 nM and the “LAF (ratio) compared with rapamycin” value was found to be 0.04. Also, in the test with pinch skin graft, the “Skin Graft mean survival time (days ± SD)” value was 7.2 ± 0.4 days.
For the compound `CCOP(=O)(NC(=O)O[C@@H]1CC[C@@H](C[C@@H](C)[C@@H]2CC(=O)[C@H](C)/C=C(\C)[C@@H](O)[C@@H](OC)C(=O)[C@H](C)C[C@H](C)/C=C/C=C/C=C(\C)[C@@H](OC)C[C@@H]3CC[C@@H](C)[C@@](O)(O3)C(=O)C(=O)N3CCCC[C@H]3C(=O)O2)C[C@H]1OC)OCC` [Example 2, Rapamycin 42-ester with (diethoxyphosphoryl)carbamic acid], in test [1], the inhibition at 0.1 µM amounted to 95%, the half-maximal inhibitory concentration (IC50) turned out to be 10 nM and the “LAF (ratio) compared with rapamycin” value turned out to be 0.44. The “Skin Graft mean survival time (days ± SD)” value in the test with pinch skin graft was 10.2 ± 0.4 days and 10.0 ± 0.6 days.
Turning to `CCOP(=O)(NC(=O)O[C@@H]1CC[C@@H](C[C@@H](C)[C@@H]2C/C(=N\OC)[C@H](C)/C=C(\C)[C@@H](O)[C@@H](OC)C(=O)[C@H](C)C[C@H](C)/C=C/C=C/C=C(\C)[C@@H](OC)C[C@@H]3CC[C@@H](C)[C@@](O)(O3)C(=O)C(=O)N3CCCC[C@H]3C(=O)O2)C[C@H]1OC)OCC` [Example 3, Rapamycin 42-ester with (diethoxyphosphoryl)carbamic acid (E)-27-O-(methyl)oxime], in test [1], the inhibition at 0.1 µM came to 51%, the IC50 is 99 nM and the “LAF (ratio) compared with rapamycin” value stood at 0.05.
On to `CCOP(=O)(NC(=O)O[C@@H]1CC[C@@H](C[C@@H](C)[C@@H]2C/C(=N/OC)[C@H](C)/C=C(\C)[C@@H](O)[C@@H](OC)C(=O)[C@H](C)C[C@H](C)/C=C/C=C/C=C(\C)[C@@H](OC)C[C@@H]3CC[C@@H](C)[C@@](O)(O3)C(=O)C(=O)N3CCCC[C@H]3C(=O)O2)C[C@H]1OC)OCC` [Example 4, Rapamycin 42-ester with (diethoxyphosphoryl)carbamic acid (Z)-27-O-(methyl)oxime], for which, in test [1], the inhibition at 0.1 µM came to 82%, half-maximal inhibition (IC50) required 41.9 nM and the “LAF (ratio) compared with rapamycin” value amounted to 0.01.
`CO[C@H]1C[C@@H]2CC[C@@H](C)[C@@](O)(O2)C(=O)C(=O)N2CCCC[C@H]2C(=O)O[C@H]([C@H](C)C[C@@H]2CC[C@@H](O)[C@H](OC)C2)CC(=O)[C@H](C)/C=C(\C)[C@@H](O)[C@@H](OC)C(=O)[C@H](C)C[C@H](C)/C=C/C=C/C=C/1C` [rapamycin]: in test [2], the “effect in the adjuvant arthritis model” value was “effective”. In test [1], the IC50 is 0.4 to 5.1 nM. The “effect in the experimental allergic encephalomyelitis model” value in test [3] was “effective”. Besides, the “inhibition of the formation of IgE-like antibodies” value in test [4] was “effectively inhibited the formation of IgE-like antibodies”. Further, the “Skin Graft mean survival time (days ± SD)” value with pinch skin graft turned out to be 12.0 ± 1.7 days. For the same compound, the antitumor activity result in test [5] is “antitumor activity”. In the test with Candida albicans, the antifungal activity result is “antifungal activity, particularly against Candida albicans, both in vitro and in vivo”.

(Values after patent US5455249A, “Phosphorylcarbamates of rapamycin and oxime derivatives thereof” (priority 1994, dated 1995).)
